Laboratory results taken from patent US12310975B2, “Modulators of BCL6 proteolysis and associated methods of use” (Arvinas Operations, Inc., priority 2019, dated 2025).

Target: BCL6 (Homo sapiens (Human), UniProt P41182)
Assay: Immunofluorescence high content imaging of BCL6 degradation in T47D cells
Format: cell-based
Conditions: T47D cells
In short: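 Read-out is BCL6 immunofluorescence quantified by high-content imaging (10×, 4 fields per well) of T47D breast cancer cells. Cells were exposed for 3 days to degrader in an 11-point, 3-fold serial dilution reaching a final top concentration of 0.1 or 1 μM.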

SMILES	Dmax	IC50
CCCn1c(=O)c(OCC(=O)NC)cc2cc(Nc3nc(N4CCC[C@H](COc5cccc6c5C(=O)N(C5CCC(=O)NC5=O)C6=O)C4)ncc3Cl)ccc21 (stereo partly drawn) [compound 318, 2-{[6-({5-chloro-2-[(3S)-3-({[2-(2,6-dioxopiperidin-3-yl)-1,3-dioxo-2,3-dihydro-1H-isoindol-4-yl]oxy}methyl)piperidin-1-yl]pyrimidin-4-yl}amino)-2-oxo-1-propyl-1,2-dihydroquinolin-3-yl]oxy}-N-methylacetamide]	50 to 70%	50 to 100 nM
CNC(=O)COc1cc2cc(Nc3nc(N4CCN(CC5CCN(c6cccc(C(=O)NC7CCC(=O)NC7=O)c6)CC5)CC4)ncc3Cl)ccc2n(C)c1=O (stereo not drawn) [compound 319, 3-[4-({4-[5-chloro-4-({1-methyl-3-[(methylcarbamoyl)methoxy]-2-oxo-1,2-dihydroquinolin-6-yl}amino)pyrimidin-2-yl]piperazin-1-yl}methyl)piperidin-1-yl]-N-(2,6-dioxopiperidin-3-yl)benzamide]	< 50%	50 to 100 nM
CNC(=O)COc1cc2cc(Nc3nc(N4CCN(CC5CCN(c6cccc(C(=O)NC7CCC(=O)NC7=O)n6)CC5)CC4)ncc3Cl)ccc2n(C)c1=O (stereo not drawn) [compound 320, 6-[4-({4-[5-chloro-4-({1-methyl-3-[(methylcarbamoyl)methoxy]-2-oxo-1,2-dihydroquinolin-6-yl}amino)pyrimidin-2-yl]piperazin-1-yl}methyl)piperidin-1-yl]-N-(2,6-dioxopiperidin-3-yl)pyridine-2-carboxamide]	< 50%	< 10 nM
CNC(=O)COc1cc2cc(Nc3nc(N4CCN(CCN5CCN(c6cccc7c6C(=O)N(C6CCC(=O)NC6=O)C7=O)CC5)CC4)ncc3Cl)ccc2n(C)c1=O (stereo not drawn) [compound 321, 2-{[6-({5-chloro-2-[4-(2-{4-[2-(2,6-dioxopiperidin-3-yl)-1,3-dioxo-2,3-dihydro-1H-isoindol-4-yl]piperazin-1-yl}ethyl)piperazin-1-yl]pyrimidin-4-yl}amino)-1-methyl-2-oxo-1,2-dihydroquinolin-3-yl]oxy}-N-methylacetamide]	50 to 70%	< 10 nM
CCCCn1c(=O)c(OCC(=O)NC)cc2cc(Nc3nc(N4CCC[C@H](COc5cccc6c5C(=O)N(C5CCC(=O)NC5=O)C6=O)C4)ncc3Cl)ccc21 (stereo partly drawn) [compound 324, 2-{[1-butyl-6-({5-chloro-2-[(3S)-3-({[2-(2,6-dioxopiperidin-3-yl)-1,3-dioxo-2,3-dihydro-1H-isoindol-4-yl]oxy}methyl)piperidin-1-yl]pyrimidin-4-yl}amino)-2-oxo-1,2-dihydroquinolin-3-yl]oxy}-N-methylacetamide]	50 to 70%	< 10 nM
CNC(=O)COc1cc2cc(Nc3nc(N4CCN(CC5CCN(c6cccc(C(=O)NC7CCC(=O)NC7=O)c6OC)CC5)CC4)ncc3Cl)ccc2n(C)c1=O (stereo not drawn) [compound 325, 3-[4-({4-[5-chloro-4-({1-methyl-3-[(methylcarbamoyl)methoxy]-2-oxo-1,2-dihydroquinolin-6-yl}amino)pyrimidin-2-yl]piperazin-1-yl}methyl)piperidin-1-yl]-N-(2,6-dioxopiperidin-3-yl)-2-methoxybenzamide]	50 to 70%	< 10 nM
CCn1c(=O)c(OCC(=O)NC)cc2cc(Nc3nc(N4CCC(OCC5CCN(c6cccc7c6C(=O)N(C6CCC(=O)NC6=O)C7=O)CC5)CC4)ncc3Cl)ccc21 (stereo not drawn) [compound 330, 2-{[6-({5-chloro-2-[4-({1-[2-(2,6-dioxopiperidin-3-yl)-1,3-dioxo-2,3-dihydro-1H-isoindol-4-yl]piperidin-4-yl}methoxy)piperidin-1-yl]pyrimidin-4-yl}amino)-1-ethyl-2-oxo-1,2-dihydroquinolin-3-yl]oxy}-N-methylacetamide]	50 to 70%	< 10 nM
CNC(=O)COc1cc2cc(Nc3nc(N4CCC[C@H](COc5cccc6c5C(=O)N(C5CCC(=O)NC5=O)C6=O)C4)ncc3Cl)ccc2n(CCC2CC2)c1=O (stereo partly drawn) [compound 334, 2-{[6-({5-chloro-2-[(3S)-3-({[2-(2,6-dioxopiperidin-3-yl)-1,3-dioxo-2,3-dihydro-1H-isoindol-4-yl]oxy}methyl)piperidin-1-yl]pyrimidin-4-yl}amino)-1-(2-cyclopropylethyl)-2-oxo-1,2-dihydroquinolin-3-yl]oxy}-N-methylacetamide]	≥ 70%	< 10 nM

The remaining lines, values ahead:

Dmax	IC50	SMILES
50 to 70%	10 to 50 nM	CNC(=O)COc1cc2cc(Nc3nc(N4CCN(CCC5CCN(c6ccc7c(c6)C(=O)N(C6CCC(=O)NC6=O)C7=O)CC5)CC4)ncc3Cl)ccc2n(C)c1=O (stereo not drawn) [compound 322, 2-{[6-({5-chloro-2-[4-(2-{1-[2-(2,6-dioxopiperidin-3-yl)-1,3-dioxo-2,3-dihydro-1H-isoindol-5-yl]piperidin-4-yl}ethyl)piperazin-1-yl]pyrimidin-4-yl}amino)-1-methyl-2-oxo-1,2-dihydroquinolin-3-yl]oxy}-N-methylacetamide]
≥ 70%	< 10 nM	CNC(=O)COc1cc2cc(Nc3nc(N4CCN(CC5CCN(c6ccc7c(c6)C(=O)N(C6CCC(=O)NC6=O)C7=O)CC5)CC4)ncc3Cl)ccc2n(C2CC2)c1=O (stereo not drawn) [compound 323, 2-{[6-({5-chloro-2-[4-({1-[2-(2,6-dioxopiperidin-3-yl)-1,3-dioxo-2,3-dihydro-1H-isoindol-5-yl]piperidin-4-yl}methyl)piperazin-1-yl]pyrimidin-4-yl}amino)-1-cyclopropyl-2-oxo-1,2-dihydroquinolin-3-yl]oxy}-N-methylacetamide]
50 to 70%	10 to 50 nM	CCN(C1CCN(c2ccc3c(c2)C(=O)N(C2CCC(=O)NC2=O)C3=O)CC1)C1CCN(c2ncc(Cl)c(Nc3ccc4c(c3)cc(OCC(=O)NC)c(=O)n4C)n2)CC1 (stereo not drawn) [compound 326, 2-{[6-({5-chloro-2-[4-({1-[2-(2,6-dioxopiperidin-3-yl)-1,3-dioxo-2,3-dihydro-1H-isoindol-5-yl]piperidin-4-yl}(ethyl)amino)piperidin-1-yl]pyrimidin-4-yl}amino)-1-methyl-2-oxo-1,2-dihydroquinolin-3-yl]oxy}-N-methylacetamide]
50 to 70%	10 to 50 nM	CCCN(C1CCN(c2ccc3c(c2)C(=O)N(C2CCC(=O)NC2=O)C3=O)CC1)C1CCN(c2ncc(Cl)c(Nc3ccc4c(c3)cc(OCC(=O)NC)c(=O)n4C)n2)CC1 (stereo not drawn) [compound 327, 2-{[6-({5-chloro-2-[4-({1-[2-(2,6-dioxopiperidin-3-yl)-1,3-dioxo-2,3-dihydro-1H-isoindol-5-yl]piperidin-4-yl}(propyl)amino)piperidin-1-yl]pyrimidin-4-yl}amino)-1-methyl-2-oxo-1,2-dihydroquinolin-3-yl]oxy}-N-methylacetamide]
50 to 70%	< 10 nM	CCn1c(=O)c(OCC(=O)NC)cc2cc(Nc3nc(N4CCC(OC5CN(C6CN(c7ccc8c(c7)C(=O)N(C7CCC(=O)NC7=O)C8=O)C6)C5)CC4)ncc3Cl)ccc21 (stereo not drawn) [compound 328, 2-{[6-({5-chloro-2-[4-({1′-[2-(2,6-dioxopiperidin-3-yl)-1,3-dioxo-2,3-dihydro-1H-isoindol-5-yl]-[1,3′-biazetidin]-3-yl}oxy)piperidin-1-yl]pyrimidin-4-yl}amino)-1-ethyl-2-oxo-1,2-dihydroquinolin-3-yl]oxy}-N-methylacetamide]
< 50%	< 10 nM	CCn1c(=O)c(OCC(=O)NC)cc2cc(Nc3nc(N4CCC(OCC5CCN(c6ccc7c(c6)C(=O)N(C6CCC(=O)NC6=O)C7=O)CC5)CC4)ncc3Cl)ccc21 (stereo not drawn) [compound 329, 2-{[6-({5-chloro-2-[4-({1-[2-(2,6-dioxopiperidin-3-yl)-1,3-dioxo-2,3-dihydro-1H-isoindol-5-yl]piperidin-4-yl}methoxy)piperidin-1-yl]pyrimidin-4-yl}amino)-1-ethyl-2-oxo-1,2-dihydroquinolin-3-yl]oxy}-N-methylacetamide]
< 50%	< 10 nM	CCn1c(=O)c(OCC(=O)NC)cc2cc(Nc3nc(N4CCC(COC5CCN(c6ccc7c(c6)C(=O)N(C6CCC(=O)NC6=O)C7=O)CC5)CC4)ncc3Cl)ccc21 (stereo not drawn) [compound 331, 2-({6-[(5-chloro-2-{4-[({1-[2-(2,6-dioxopiperidin-3-yl)-1,3-dioxo-2,3-dihydro-1H-isoindol-5-yl]piperidin-4-yl}oxy)methyl]piperidin-1-yl}pyrimidin-4-yl)amino]-1-ethyl-2-oxo-1,2-dihydroquinolin-3-yl}oxy)-N-methylacetamide]
50 to 70%	< 10 nM	CCn1c(=O)c(OCC(=O)NC)cc2cc(Nc3nc(N4CCC(COC5CCN(c6cccc7c6C(=O)N(C6CCC(=O)NC6=O)C7=O)CC5)CC4)ncc3Cl)ccc21 (stereo not drawn) [compound 332, 2-({6-[(5-chloro-2-{4-[({1-[2-(2,6-dioxopiperidin-3-yl)-1,3-dioxo-2,3-dihydro-1H-isoindol-4-yl]piperidin-4-yl}oxy)methyl]piperidin-1-yl}pyrimidin-4-yl)amino]-1-ethyl-2-oxo-1,2-dihydroquinolin-3-yl}oxy)-N-methylacetamide]
50 to 70%	< 10 nM	CNC(=O)COc1cc2cc(Nc3nc(N4CCN(CC5CCN(c6ccc7c(c6)C(=O)N(C6CCC(=O)NC6=O)C7=O)CC5)CC4)ncc3Cl)ccc2n(CCC2CC2)c1=O (stereo not drawn) [compound 333, 2-{[6-({5-chloro-2-[4-({1-[2-(2,6-dioxopiperidin-3-yl)-1,3-dioxo-2,3-dihydro-1H-isoindol-5-yl]piperidin-4-yl}methyl)piperazin-1-yl]pyrimidin-4-yl}amino)-1-(2-cyclopropylethyl)-2-oxo-1,2-dihydroquinolin-3-yl]oxy}-N-methylacetamide]
50 to 70%	< 10 nM	CNC(=O)COc1cc2cc(Nc3nc(N4CCN(C(C)C5CCN(c6ccc7c(c6)C(=O)N(C6CCC(=O)NC6=O)C7=O)CC5)CC4)ncc3Cl)ccc2n(C)c1=O (stereo not drawn) [compound 335, 2-{[6-({5-chloro-2-[4-(1-{1-[2-(2,6-dioxopiperidin-3-yl)-1,3-dioxo-2,3-dihydro-1H-isoindol-5-yl]piperidin-4-yl}ethyl)piperazin-1-yl]pyrimidin-4-yl}amino)-1-methyl-2-oxo-1,2-dihydroquinolin-3-yl]oxy}-N-methylacetamide]
